Data: PMC7277860, “Viridistratins A−C, Antimicrobial and Cytotoxic Benzo[j]fluoranthenes from Stromata of Annulohypoxylon viridistratum (Hypoxylaceae, Ascomycota)” (Biomolecules, 2020)
Values after ≈ are worked out from the molar mass of the structure shown.

Tested on: Micrococcus luteus
Assay: MIC serial dilution assay
Format: cell-based
Conditions: overnight, 30 °C, reference oxytetracycline 0.1 mg/mL; for MIC: Micrococcus luteus, DSM1790, Micrococcus luteus DSM1790, read-out: Minimum Inhibitory Concentration (MIC)
Method: Compounds 1, 2, 4 and 5 were dissolved in MeOH (1 mg/mL) for the antimicrobial activity assay, while compound 3 was dissolved in MeOH: DMSO 9+1 (1 mg/mL). The solvents were also used as negative controls.
Minimum inhibitory concentrations (MIC) were determined in a serial dilution assay, as described previously; a detailed protocol can be found in the Supporting Information. The compounds (1 mg/mL) were diluted to a range of 66.7 to 0.52 µg/mL and incubated with the test organisms overnight. Inhibition of growth was visually evaluated the next day: the MIC is defined as the lowest concentration of the test compound where no growth of the test organism was observed. Various test organisms of fungal and bacterial origin were tested to cover a broad range of microorganisms. This selection is also being used as a standard test panel in our attempts to discover new anti-infectives, as it represents a broad spectrum of pathogens of clinical interest, as well as sensitive indicator strains (bacteria: Bacillus subtilis, Staphylococcus aureus, Micrococcus luteus, Chromobacterium violaceum, Escherichia coli and Pseudomonas aeruginosa; mycobacteria: Mycolicibacterium smegmatis and fungi: Candida albicans, Schizosaccharomyces pombe, Mucor hiemalis, Pichia anomala and Rhodotorula glutinis).
Protocol: Antimicrobial Activi ty Assay
The assay was conducted as a minimum inhi bitory concentration (MIC) assay in 96-well ro und-bottom mi crotiter pl ate s usi ng the p ar ameter s su mm ari zed i n T a bl e S 1 and as already described i n [S1].
Stocks of the test organi sms were generated by growing the organisms o ver ni ght i n 50 mL shaki ng fl asks fi ll ed wi th 25 mL of the growth medi um at 140 rpm (for media and temperatures see Table S1). If the organisms were well grown the ne xt day, which was checked by occurrence of an optical density (OD)>30 of the suspension (OD600 nm for bacteria, OD548 nm for fungi and M. smegma tis) , aliquots of these were stored i n 1.5 mL reaction tube s in a freezer at −80 °C for up to 12 mo nths . Upon use, aliquots were unth awed and the OD of the suspension measured and adjusted by diluting with the respective growth medi um. OD600 nm w as adj usted to 0.01 and OD548 nm to 0.1.
Subse que ntly, 150 µL o f the adjusted suspensions were added to all wells of a 96-wel l microtiter pl ate (one test organi sm per plate). In row A, additional 130 µL of suspensions plus 20 µL of the test compounds (1 mg/mL) and the controls (one compound/column) were added. MeOH as well as MeOH:DMSO 9+1 were used as negative controls, while different positive controls (refer ences) were used for the test organisms (see Tabl e S1). Then, starti ng from row A, 150 µ L of the suspension were transferred to the next row, the contents thoroughly mixed, and 150 µ L transferred to the following row.
The remaining 150 µ L after row H were discarded. […]
compounds, ranging from 66.7 µg/mL i n row A to 0.52 µg/mL i n row H.
The microtiter plates were then incubated overnight o n a microplate shaker at 800 rpm at 30 or 37 °C (see Table S1) and were visually evaluated the next day. The MIC is defined as the lowest concentration were no growth of the test organism was o bserved. A lower MIC thus corresponds to a higher antimicrobial activity of the test compound.
Table S1: MIC assay ex per i men t parameters test organism strain No. growth incubation positive control (reference) […]
Micrococcus luteu s DSM1790 MHB 1 30 oxytetr acyclin 0.1 mg/mL […]
Rhodotorula glutinis DSM10134 MYC 3 30 nyst ati n 1.0 mg/mL
1 MHB: Müller-Hinton Broth (SN X927.1, Ca r l Roth GmbH, Karlsruhe, Germany) 2 7H9+ADC: Middlebrook 7H9 Broth Base + Middlebrook ADC Growth Supplement (SN M0678+M0553, Merck, Darmstadt, Germany)
3 MYC: 1 % w/v, bacto peptone, 1% w/v yeast extract, 2 % w /v glycerol, pH 6.3 [S1] Helaly, S.E.; Ashrafi, S.; Teponno, R.B.; Bernecker, S.; Dababat, A.A.; Maier, W.; Stadler, M.
Nematicidal Cyclic Lipodepsipeptides and a Xanthocillin Derivative from a Phaeosphariaceous […]

Row | MIC | Structure (SMILES) | Minimum Inhibitory Concentration (MIC) (Micrococcus luteus DSM1790)
1 | 16.7 µg/mL (≈ 55.6 µM) | Oc1cccc2c3c(ccc12)-c1ccc(O)c2c(O)ccc-3c12 [Compound 1, viridistratin A] | 
2 | 8.3 µg/mL (≈ 26.4 µM) | COc1cccc2c3c(ccc12)-c1ccc(O)c2c(O)ccc-3c12 [Compound 2, viridistratin B] | 
3 | 16.7 µg/mL (≈ 50.3 µM) | O=C1CCC(=O)c2c1c(O)cc1c2-c2ccc(O)c3c(O)ccc-1c23 [Compound 5, truncatone C] | 

Row | Structure (SMILES) | MIC | Minimum Inhibitory Concentration (MIC) (Micrococcus luteus DSM1790)
4 | O=C1C[C@H]2C(=C3CCC(=O)c4c(O)ccc2c43)c2cccc(O)c21 [Compound 4, truncatone A] | 16.7 µg/mL (≈ 52.5 µM) | 33.3 µg/mL
